Three compounds from article PMC5473904, “Epigenetic and antitumor effects of platinum(IV)-octanoato conjugates” (Scientific Reports, 2017) can be followed below.

For series [1], the system named is CHO-K1 Chinese hamster ovary cells. The series is described as follows: MTT cytotoxicity, 72 h. The note with it: platinum complexes. The class given is cell-based. On the procedure: (§1) Cytotoxic activity of the compounds tested in the present work was screened on the panel of malignant and nonmalignant cell lines using the colorimetric MTT assay and 72 h of drug incubation period.
(§2) Cell death was evaluated using a system based on the tetrazolium compound MTT [3-(4,5-dimethyl-2-thiazolyl)-2,5-diphenyl-2H-tetrazolium bromide]. The cells were seeded in 96-well tissue culture plates at a density of 10^4 A2780cisR, LNCaP, HSF cells/well, 3 × 10^3 CHO-K1 or 4 × 10^3 MCF7, HCT-116 and MRC5 pd30 cells/well in 100 μL of medium. After overnight incubation (16 h), the cells were treated with the compounds in a final volume of 200 μL/well. After additional 72 h, 10 μL of a freshly diluted MTT solution (2.5 mg mL^−1) was added to each well, and the plate was incubated at 37 °C in a humidified 5% CO2 atmosphere for 4 h. At the end of the incubation period, the medium was removed, and the formazan product was dissolved in 100 μL of DMSO. The cell viability was evaluated by measurement of the absorbance at 570 nm, using an Absorbance Reader SUNRISE TECAN SCHOELLER. IC50 values were calculated from curves constructed by plotting cell survival (%) versus drug concentration (μM). All experiments were made in triplicate. The reading values were converted to the percentage of control (% cell survival). Cytotoxic effects were expressed as IC50.

In series [2] the test system is MCF-7 human breast cancer cells. The series is described as follows: MTT cytotoxicity, 72 h. The class given is cell-based. The note with it: platinum complexes. Here is the method:
as §1, §2

The test system of series [3] is A2780cisR human ovarian carcinoma cells. As to the kind of experiment: MTT cytotoxicity, 72 h. The note with it: for RF, resistance factor: IC50 (resistant, A2780cisR)/IC50 (sensitive, A2780); for IC50: MTT, 72 h, platinum complexes. The class given is cell-based. On the procedure:
as §1, §2

Series [4] relates to HCT-116 human colorectal carcinoma cells. As to the kind of experiment: MTT cytotoxicity, 72 h. The note with it: for IC50: MTT, 72 h, platinum complexes and decitabine. The class given is cell-based. On the procedure:
as §1, §2

For series [5], the system named is HCT-116 cells. As to the kind of experiment: Cellular platinum accumulation/distribution by ICP-MS. The class given is cell-based, human. The note with it: HCT-116, 24 h, 0.35 µM.
The test system of series [6] is A2780 human ovarian carcinoma cells. The series is described as follows: MTT cytotoxicity, 72 h. The class given is cell-based. The note with it: for IC50: MTT, 72 h, platinum complexes.
The next series deals with PNT1a. As to the kind of experiment: MTT cytotoxicity, 72 h. Type of series: cell-based. Conditions: platinum complexes.
Series [7] relates to DNMT enzymes in HCT-116 cells. The series is described as follows: DNMT activity in nuclear extracts of treated cells. The class given is cell-based, human. Conditions: 24 h. On the procedure: In these experiments, the total activity of DNMT enzymes was determined in nuclear extracts prepared from HCT-116 cells which were treated with the platinum compounds, free OA or decitabine for 24 h (Fig. 4B).
Human colon carcinoma cells (HCT-116) were seeded in 100 mm culture dishes at the density 1.5 × 10^6 cells/dish. Cells were harvested after 24 h of incubation with the compounds tested in the present work (1 µM). Nuclear extracts from the pellets were separated using EpiQuik Nuclear extraction kit I (Epigentek, NY) according to manufacturer’s instructions. Quantification of nuclear proteins was analyzed with the standard Bradford assay. The activity of DNMT enzymes was analyzed using the EpiQuik DNMT activity/inhibition assay Ultra kit (Epigentek, NY), according to the manufacturer´s protocol. Briefly, 10 µg of total nuclear protein was analyzed for its DNMT activity. The reaction time with a universal DNMT substrate stably coated onto microplate wells was 120 min at 37 °C. The final signal at the end of the ELISA reaction was detected at 450 nm (reference 620 nm). DNMT activity was normalized to controls and expressed in the percent or absolute values as OD h^−1 mg^−1, calculated as described in the manufacturer’s manual.

For series [8], the system named is HCT-116 cells. The series is described as follows: Cellular platinum accumulation/distribution by ICP-MS. Conditions: for Total cellular platinum accumulation: HCT-116, 24 h exposure, 0.35 µM. The class given is cell-based, human. Here is the method:
(§3) Cellular concentrations of platinum were determined by inductively coupled plasma mass spectrometry (ICP-MS) after 24 h of exposure to the complexes at the concentration of 0.35 µM.
(§4) Cellular uptake studies were also carried out to measure the accumulation of platinum species in cytosol and nucleus. […] The platinum levels in each pool were measured by ICP-MS. The extent of accumulation of both OA conjugated Pt(IV) prodrugs into the cytosol and nucleus fractions was markedly higher than that of cisplatin or Pt(IV)diAc.
(§5) The cells were seeded in 150 cm^2 culture flasks at a density 1 × 10^7 cells/flask (67 000 cells/cm^2). After 48-h incubation, the cells were treated with the compounds (0.35 μM) for 24 h. The attached cells were washed twice with PBS (4 °C). Seventy-five percent of cells were used for analysis of platinum bound to DNA, remaining 25% were used for estimations of cellular accumulation of platinum. Cell pellets were digested by a high-pressure microwave digestion system (MARS5, CEM) with HCl to give a fully homogenized solution, and final platinum content was determined by ICP-MS. The analysis with the aid of ICP-MS was performed using Agilent 7500 (Agilent, Japan) or Thermo Optek X Series.
(§6) A2780 cells were seeded in 100 mm tissue culture dishes (3 × 10^6 cells) and grown for 48 h to 80–90% confluence. Cells were harvested after 24 h of treatment. Concretely, the dishes were washed two times with ice-cold PBS and the cells scraped into tubes and centrifuged for 10 min at 0 °C (200 g). The pellets were resuspended in the lysis buffer [Tris·HCl (10 mM, pH 8.0), KCl (60 mM), EDTA (1.2 mM), DTT (1 mM), phenylmethanesulfonyl fluoride (PMSF, 0.1 mM), NP-40 (0.04%)] for 10 min on ice and centrifuged for 4 min at 0 °C (800 g). Cytosolic fraction was separated for platinum ICP-MS analysis, and protein concentration was determined by Bradford assay. The pellets were rinsed with the above lysis buffer without PMSF and NP-40 and centrifuged for another 4 min at 0 °C (300 g). The pellets were resuspended in 50 µL nuclear extraction buffer [Tris·HCl (20 mM, pH 8.0), NaCl (420 mM), MgCl2 (0.7 mM), EDTA (0.25 mM), glycerol (25%)] and incubated for 30 min at 4 °C, continuously mixed on end-over-end roller, and then centrifuged for 15 min at 0 °C (13000 g). Protein concentration in nuclear extracts was determined by the Bradford assay, and stored at −80 °C until analysis.

In a further series the test system is A2780 cells. The series is described as above. The note with it: for Platinum in cytosol / Platinum in nucleus: A2780, 24 h; for Platinum in cytosol / Platinum in nucleus / Total cellular platinum accumulation: 0.35 µM; for Total cellular platinum accumulation: A2780, 24 h exposure. Type of series: cell-based, human. Here is the method:
as §3, §4, §5, §6

One may read the IC50 as the concentration at which inhibition is half-maximal.

`CCCCCCCC(=O)[O][Pt]([NH2])([NH2])([Cl])([Cl])[O]C(=O)CCCCCCC` [Pt(IV)diOA, cis, cis, trans-[Pt(IV)(NH3)2Cl2(OA)2]]: the IC50 came to 0.14 ± 0.02 µM in [1]; 0.038 ± 0.006 µM in series [2]; 0.029 ± 0.002 µM in series [3]; 0.017 ± 0.003 µM in [4]; 0.041 ± 0.001 µM in [6]; 0.022 ± 0.001 µM in the series with PNT1a. For the same compound, the “RF, resistance factor” value in series [3] is on record as 0.7. The “Increase of cytotoxicity vs. cisplatin” value in series [4] (HCT-116, Fig. 2B) came out at 347 x; in series [6] (A2780, Fig. 2A), 68 x. Further, the “Increase of cytotoxicity vs. Pt(IV)diAc” value in [4] (HCT-116, Fig. 2D) is reported as 2076 x; in [6] (A2780, Fig. 2C), 129 x. Besides, the Platinum in cytosol worked out at 59 ± 7 pg Pt/µg protein in the series with HCT-116 cells [5] and 138 ± 12 pg Pt/µg protein with A2780 cells. In addition, the Platinum in nucleus in the series with HCT-116 cells [5] is on record as 189 ± 9 pg Pt/µg protein; in the series on A2780 cells it was 173 ± 15 pg Pt/µg protein. Also, the “Activity of DNMT enzymes” value in series [7] (HCT-116, 0.5 µM) is “enhanced activity of DNMT enzymes”; in series [7] (HCT-116, 1.0 µM) it was “enhanced activity of DNMT enzymes”. The entries for the “Total cellular platinum accumulation” value with HCT-116 cells [8] and in the series on A2780 cells were 29.2 ± 0.3 ng Pt/10^6 cells and 12.9 ± 0.3 ng Pt/10^6 cells, respectively. Further, the “Increase of cellular accumulation vs. cisplatin” value in the series with HCT-116 cells [8] (HCT-116, Fig. 2B) came to 34 x; in the series with A2780 cells (A2780, Fig. 2A) it was 16 x. In addition, the “Increase of cellular accumulation vs. Pt(IV)diAc” value in the series with HCT-116 cells [8] (HCT-116, Fig. 2D) was 153 x; in the series with A2780 cells (A2780, Fig. 2C), 29 x.

As for `N.N.[Cl][Pt][Cl]` [cisplatin, reference compound], the IC50 in [1] stood at 19.9 ± 1 µM; in series [2], 17.4 ± 1.9 µM; in series [3] it was 13.8 ± 0.1 µM; in series [4], 5.9 ± 0.9 µM; in series [6], 2.8 ± 0.1 µM; in the series with PNT1a, 2.5 ± 0.32 µM. Further, the “RF, resistance factor” value in series [3] was found to be 4.9. Moreover, the Platinum in cytosol with HCT-116 cells [5] is 3.6 ± 0.2 pg Pt/µg protein; in the series with A2780 cells, 5.5 ± 0.9 pg Pt/µg protein. Further, the Platinum in nucleus with HCT-116 cells [5] was determined as 4.1 ± 0.3 pg Pt/µg protein; in the series on A2780 cells, 3.0 ± 0.7 pg Pt/µg protein. Besides, the “Activity of DNMT enzymes” value in series [7] (HCT-116, 1.0 µM) was “no significant effect”; in series [7] (HCT-116, 30 µM) it was “no significant effect”. The “Total cellular platinum accumulation” value with HCT-116 cells [8] is 0.9 ± 0.1 ng Pt/10^6 cells; with A2780 cells, 0.8 ± 0.2 ng Pt/10^6 cells.

Take `CC(=O)[O][Pt]([NH2])([NH2])([Cl])([Cl])[O]C(C)=O` [Pt(IV)diAc, cis, cis, trans-[Pt(IV)(NH3)2Cl2(Ac)2]]: the IC50 in series [1] came out at 14.5 ± 0.7 µM; in series [2], 51 ± 4 µM; in [3], 22 ± 3.1 µM; in series [4] it was 35.3 ± 1.4 µM; in [6] it was 5.3 ± 1 µM; in the series with PNT1a, 2.48 ± 0.1 µM. In series [3], the “RF, resistance factor” value is 4.2. Further, the Platinum in cytosol in the series with HCT-116 cells [5] is listed as 2.1 ± 0.3 pg Pt/µg protein; in the series with A2780 cells, 3.0 ± 0.4 pg Pt/µg protein. For the same compound, the values for the Platinum in nucleus in the series on HCT-116 cells [5] and with A2780 cells were 4.6 ± 0.5 pg Pt/µg protein and 3.0 ± 0.5 pg Pt/µg protein, respectively. Further, the “Activity of DNMT enzymes” value in [7] (HCT-116, 1.0 µM) is given as “no significant effect”. Besides, the entries for the “Total cellular platinum accumulation” value with HCT-116 cells [8] and with A2780 cells were 0.19 ± 0.04 ng Pt/10^6 cells and 0.45 ± 0.09 ng Pt/10^6 cells, respectively.
